What was measured:
mouse DGAT1 = target: T1, mouse DGAT1 (Mus musculus, UniProt Q9Z2A7); test: DGAT1 inhibitory effect test (microsome fraction, [14C]-oleoyl-CoA, triglyceride radioactivity by TLC); format: biochemical; settings: 0.5 h; concentration of the test compound 0.1 μg/ml; mouse DGAT1 microsomes, 23° C., 30 minutes; read-out: Inhibitory ratio
T1 construct: made in house; host or cells: insect cells (High Five, Sf9, Sf21, etc.), baculovirus expression system (Invitrogen)
T1 sequence (Q9Z2A7 1-498): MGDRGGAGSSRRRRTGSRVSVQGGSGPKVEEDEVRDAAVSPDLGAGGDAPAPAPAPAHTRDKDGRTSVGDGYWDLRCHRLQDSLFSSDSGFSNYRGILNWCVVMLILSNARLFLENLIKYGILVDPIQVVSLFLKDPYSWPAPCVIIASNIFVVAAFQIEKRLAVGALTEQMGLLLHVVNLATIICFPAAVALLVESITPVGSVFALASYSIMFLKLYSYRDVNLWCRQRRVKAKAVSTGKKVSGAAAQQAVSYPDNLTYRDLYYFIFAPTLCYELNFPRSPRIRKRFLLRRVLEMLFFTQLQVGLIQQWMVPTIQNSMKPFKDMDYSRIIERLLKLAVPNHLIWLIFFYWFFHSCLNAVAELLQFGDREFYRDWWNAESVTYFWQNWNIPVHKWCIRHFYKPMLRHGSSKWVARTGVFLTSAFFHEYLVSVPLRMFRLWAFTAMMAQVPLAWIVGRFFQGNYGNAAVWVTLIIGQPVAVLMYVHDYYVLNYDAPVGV
Outline: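 Inhibition was scored from radiolabelled triglyceride separated by TLC, relative to vehicle and net of a 0-min background. The reaction ran for 30 min at room temperature (23 °C) in Tris-HCl pH 8.0 with MgCl2, BSA and Triton X-100. Substrates were 30 μM [14C]-oleoyl-CoA and 0.5 mM dioleoylglycerol, with mouse DGAT1 microsomes from baculovirus-infected insect cells as enzyme.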

SMILES	inhibition at 0.1 µg/mL (mouse DGAT1) [%]	melting point
COC(=O)Cc1ccc(OC(=O)N2CCN(c3ccc(NC(=O)Nc4cc(C)ccc4OC)cc3)CC2)c(Cl)c1 [Example 393, 4-{4-[3-(2-methoxy-5-methyl-phenyl)-ureido]-phenyl}-piperazine-1-carboxylic acid 2-chloro-4-methoxycarbonylmethyl-phenyl ester]	≥ 50	209 to 210 °C
CCOc1ccc(F)cc1NC(=O)Nc1ccc(N2CCN(C(=O)OC(C)(C)C)CC2)nc1 [Example 46, 4-{5-[3-(2-ethoxy-5-fluoro-phenyl)-ureido]-pyridin-2-yl}-piperazine-1-carboxylic acid tert-butyl ester]	≥ 50	180 °C
CCC(C)c1ccccc1NC(=O)Nc1ccc(N2CCN(C(=O)Nc3c(C)cccc3Cl)CC2)cc1 (stereo not drawn) [Example 157, 4-{4-[3-(2-sec-butyl-phenyl)-ureido]-phenyl}-piperazine-1-carboxylic acid (2-chloro-6-methyl-phenyl)-amide]	≥ 50	232 to 234 °C
COc1ccccc1NC(=O)Nc1ccc(C2=CCN(C(=O)Nc3ccc(OCC(O)CO)cc3Cl)CC2)cc1 (stereo not drawn) [Example 286, 4-{4-[3-(2-methoxy-phenyl)-ureido]-phenyl}-3,6-dihydro-2H-pyridine-1-carboxylic acid [2-chloro-4-(2,3-dihydroxy-propoxy)-phenyl]-amide]	≥ 50	103 to 107 °C
Cc1nc(NC(=O)Nc2ccc(N3CCN(C(=O)Nc4ccc(OCCO)cc4C(F)(F)F)CC3)cc2)sc1C [Example 225, 4-{4-[3-(4,5-dimethyl-thiazol-2-yl)-ureido]-phenyl}-piperazine-1-carboxylic acid [4-(2-hydroxy-ethoxy)-2-trifluoromethyl-phenyl]-amide]	≥ 50	166 to 167 °C
COc1ccc(C)cc1NC(=O)Nc1ccc2c(c1)CCN(C(=O)Nc1ccc(OCCO)cc1C(F)(F)F)C2 [Example 226, 6-[3-(2-methoxy-5-methyl-phenyl)-ureido]-3,4-dihydro-1H-isoquinoline-2-carboxylic acid [4-(2-hydroxy-ethoxy)-2-trifluoromethyl-phenyl]-amide]	≥ 50	122 to 124 °C
COc1ccc(C)cc1NC(=O)Nc1ccc(C2CCN(C(=O)Nc3cc(OCCO)ccc3Cl)CC2)cc1 [Example 274, 4-{4-[3-(2-methoxy-5-methyl-phenyl)-ureido]-phenyl}-piperidine-1-carboxylic acid [2-chloro-5-(2-hydroxy-ethoxy)-phenyl]-amide]	≥ 50	202 to 205 °C
COc1ccc(C)cc1NC(=O)Nc1ccc(N2CCN(C(=O)Nc3ccc(OCCO)cc3F)CC2)cc1 [Example 210, 4-{4-[3-(2-methoxy-5-methyl-phenyl)-ureido]-phenyl}-piperazine-1-carboxylic acid [2-fluoro-4-(2-hydroxy-ethoxy)-phenyl]-amide]	≥ 50	214 to 215 °C
CCOc1ccc(F)cc1NC(=O)Nc1ccc(N2CCN(C(=O)Nc3ccc(OC)cc3C)CC2)cc1 [Example 112, 4-{4-[3-(2-ethoxy-5-fluoro-phenyl)-ureido]-phenyl}-piperazine-1-carboxylic acid (4-methoxy-2-methyl-phenyl)-amide]	≥ 50	186 to 189 °C
Cc1cccc(Cl)c1NC(=O)N1CCN(c2ccc(NC(=O)NC3CCCCC3)cc2)CC1 [Example 207, 4-[4-(3-cyclohexyl-ureido)-phenyl]-piperazine-1-carboxylic acid (2-chloro-6-methyl-phenyl)-amide]	≥ 50	> 260 °C (dec.)
CCOc1ccc(C)cc1NC(=O)Nc1ccc(N2CCN(C(=O)Nc3c(C)cccc3OC)CC2)cc1 [Example 184, 4-{4-[3-(2-ethoxy-5-methyl-phenyl)-ureido]-phenyl}-piperazine-1-carboxylic acid (2-methoxy-6-methyl-phenyl)-amide]	≥ 50	142 to 144 °C
CCOc1ccc(F)cc1NC(=O)Nc1ccc(N2CCN(C(=O)Nc3c(Cl)cccc3Cl)CC2)cc1 [Example 94, 4-{4-[3-(2-ethoxy-5-fluoro-phenyl)-ureido]-phenyl}-piperazine-1-carboxylic acid (2,6-dichloro-phenyl)-amide]	≥ 50	212 to 214 °C
COc1ccc(NC(=O)N2CCN(c3ccc(NC(=O)Nc4cc(C)ccc4OC)cc3)CC2)c(C)c1 [Example 73, 4-{4-[3-(2-methoxy-5-methyl-phenyl)-ureido]-phenyl}-piperazine-1-carboxylic acid (4-methoxy-2-methyl-phenyl)-amide]	≥ 50	193 to 195 °C
COc1ccc(NC(=O)N2CCN(c3ccc(NC(=O)Nc4cc(F)ccc4OC)cc3)CC2)c(C)c1 [Example 113, 4-{4-[3-(5-fluoro-2-methoxy-phenyl)-ureido]-phenyl}-piperazine-1-carboxylic acid (4-methoxy-2-methyl-phenyl)-amide]	≥ 50	216 to 218 °C
COc1ccccc1NC(=O)Nc1ccc(C2CCN(C(=O)Nc3ccc(OCC(O)CO)cc3Cl)CC2)cc1 (stereo not drawn) [Example 288, 4-{4-[3-(2-methoxy-phenyl)-ureido]-phenyl}-piperidine-1-carboxylic acid [2-chloro-4-(2,3-dihydroxy-propoxy)-phenyl]-amide]	≥ 50	158 to 161 °C
Cc1cccnc1NC(=O)N1CCN(c2ccc(NC(=O)Nc3ccccc3F)cc2)CC1 [Example 295, 4-{4-[3-(2-fluoro-phenyl)-ureido]-phenyl}-piperazine-1-carboxylic acid (3-methyl-pyridin-2-yl)-amide]	≥ 50	> 250 °C (dec.)

Continued, values first:

inhibition at 0.1 µg/mL (mouse DGAT1) [%]	melting point	SMILES
≥ 50	213 to 214 °C	COc1ccc(C)cc1NC(=O)Nc1ccc(N2CCN(C(=O)Nc3ccccc3C(F)(F)F)CC2)nc1 [Example 137, 4-{5-[3-(2-methoxy-5-methyl-phenyl)-ureido]-pyridin-2-yl}-piperazine-1-carboxylic acid (2-trifluoromethyl-phenyl)-amide]
≥ 50	225 to 228 °C	COc1ccc(C)cc1NC(=O)Nc1ccc(N2CCN(C(=O)Nc3ccc(OCCO)cc3C(F)(F)F)CC2)c(C)c1 [Example 239, 4-{4-[3-(2-methoxy-5-methyl-phenyl)-ureido]-2-methyl-phenyl}-piperazine-1-carboxylic acid [4-(2-hydroxy-ethoxy)-2-trifluoromethyl-phenyl]-amide]
≥ 50	152 to 154 °C	COc1ccc(C)cc1NC(=O)Nc1ccc(N2CCN(C(=O)Nc3ccc(NC(C)=O)cc3C(F)(F)F)CC2)cc1 [Example 173, 4-{4-[3-(2-methoxy-5-methyl-phenyl)-ureido]-phenyl}-piperazine-1-carboxylic acid (4-acetylamino-2-trifluoromethyl-phenyl)-amide]
≥ 50	134 to 135 °C	COc1ccc(C)cc1NC(=O)Nc1ccc(N2CCN(C(=O)Nc3ccc(C(C)C)cc3C(F)(F)F)CC2)cc1 [Example 178, 4-{4-[3-(2-methoxy-5-methyl-phenyl)-ureido]-phenyl}-piperazine-1-carboxylic acid (4-isopropyl-2-trifluoromethyl-phenyl)-amide]
≥ 50	214 to 215 °C	COc1ccc(C)cc1NC(=O)Nc1ccc(N2CCN(C(=O)Nc3ccc(C)cc3Cl)CC2)nc1 [Example 147, 4-{5-[3-(2-methoxy-5-methyl-phenyl)-ureido]-pyridin-2-yl}-piperazine-1-carboxylic acid (2-chloro-4-methyl-phenyl)-amide]
≥ 50	210 to 212 °C	COc1ccc(C)cc1NC(=O)Nc1ccc(N2CCN(C(=O)Nc3ccccc3C#N)CC2)cc1 [Example 61, 4-{4-[3-(2-methoxy-5-methyl-phenyl)-ureido]-phenyl}-piperazine-1-carboxylic acid (2-cyano-phenyl)-amide]
≥ 50	245 to 247 °C	COc1ccc(NC(=O)N2CCN(c3ccc(NC(=O)Nc4cc(C)ccc4OC)cc3)CC2)c(C(F)(F)F)c1 [Example 175, 4-{4-[3-(2-methoxy-5-methyl-phenyl)-ureido]-phenyl}-piperazine-1-carboxylic acid (4-methoxy-2-trifluoromethyl-phenyl)-amide]
≥ 50	179 to 181 °C	CCOc1ccccc1NC(=O)Nc1ccc(N2CCN(C(=O)Nc3ccc(C)cc3Cl)CC2)cc1 [Example 121, 4-{4-[3-(2-ethoxy-phenyl)-ureido]-phenyl}-piperazine-1-carboxylic acid (2-chloro-4-methyl-phenyl)-amide]

Source: US20070249620A1, “Urea Derivative” (priority 2004, published 2007)
